From US10947242B2, “[1,2,4]triazolo[1,5and#8208;A]pyrimidine compounds as PDE2 inhibitors” (Janssen Pharmaceutica NV, priority 2016, dated 2021)
Like-named read-outs stand apart in the source and are kept apart here.

How the values were obtained:
[1] = target: T1, Human recombinant PDE2A (hPDE2A) (Homo sapiens, UniProt O00408); assay: In vitro assay PDE2A (SPA, 3H-cGMP hydrolysis); format: biochemical; details: for IC50: read-out: hPDE2A pIC50 (converted); for Emax: read-out: hPDE2A Emax
T1 construct: His tag (inferred from metal chelate purification); made in house; host or cells: Sf9 insect cells (baculovirus)
T1 sequence (O00408 whole entry): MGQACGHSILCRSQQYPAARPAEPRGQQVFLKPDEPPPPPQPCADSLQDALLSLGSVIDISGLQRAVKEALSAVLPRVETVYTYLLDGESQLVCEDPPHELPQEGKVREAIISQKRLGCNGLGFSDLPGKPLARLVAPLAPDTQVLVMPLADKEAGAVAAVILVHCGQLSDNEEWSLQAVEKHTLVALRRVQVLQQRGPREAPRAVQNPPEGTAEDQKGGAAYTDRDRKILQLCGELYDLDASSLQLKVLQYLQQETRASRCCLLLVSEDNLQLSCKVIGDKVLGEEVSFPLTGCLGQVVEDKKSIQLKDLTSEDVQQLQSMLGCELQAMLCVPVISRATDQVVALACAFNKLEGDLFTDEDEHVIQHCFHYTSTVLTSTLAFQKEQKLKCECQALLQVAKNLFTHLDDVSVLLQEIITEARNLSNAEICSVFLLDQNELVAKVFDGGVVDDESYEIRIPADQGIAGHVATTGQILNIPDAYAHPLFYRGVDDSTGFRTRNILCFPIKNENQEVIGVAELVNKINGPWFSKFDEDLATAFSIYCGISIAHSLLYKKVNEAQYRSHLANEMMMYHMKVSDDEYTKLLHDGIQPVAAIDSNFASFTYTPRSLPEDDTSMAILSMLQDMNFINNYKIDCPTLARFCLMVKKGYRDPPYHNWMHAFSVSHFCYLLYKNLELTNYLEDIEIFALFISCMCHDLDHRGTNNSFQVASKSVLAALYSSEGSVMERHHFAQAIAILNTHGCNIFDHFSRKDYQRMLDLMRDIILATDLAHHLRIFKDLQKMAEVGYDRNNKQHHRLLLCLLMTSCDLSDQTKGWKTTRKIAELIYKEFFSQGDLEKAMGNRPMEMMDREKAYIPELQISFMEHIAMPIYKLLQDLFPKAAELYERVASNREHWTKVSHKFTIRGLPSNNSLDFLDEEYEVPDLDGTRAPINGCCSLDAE

[2] = target: T2, Human recombinant PDE3A (hPDE3A) (Homo sapiens, UniProt Q14432); assay: In vitro assay PDE3A (SPA, 3H-cAMP hydrolysis); format: biochemical; details: for IC50: hPDE3B pIC50, read-out: pIC50 (converted); for Emax: read-out: hPDE3B Emax, read-out: Emax;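 on all read-outs here: the method names PDE3A and the table heading PDE3B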
T2 construct: purchased Scottish Biomedical; host or cells: Sf9 insect cells
T2 sequence (Q14432 whole entry): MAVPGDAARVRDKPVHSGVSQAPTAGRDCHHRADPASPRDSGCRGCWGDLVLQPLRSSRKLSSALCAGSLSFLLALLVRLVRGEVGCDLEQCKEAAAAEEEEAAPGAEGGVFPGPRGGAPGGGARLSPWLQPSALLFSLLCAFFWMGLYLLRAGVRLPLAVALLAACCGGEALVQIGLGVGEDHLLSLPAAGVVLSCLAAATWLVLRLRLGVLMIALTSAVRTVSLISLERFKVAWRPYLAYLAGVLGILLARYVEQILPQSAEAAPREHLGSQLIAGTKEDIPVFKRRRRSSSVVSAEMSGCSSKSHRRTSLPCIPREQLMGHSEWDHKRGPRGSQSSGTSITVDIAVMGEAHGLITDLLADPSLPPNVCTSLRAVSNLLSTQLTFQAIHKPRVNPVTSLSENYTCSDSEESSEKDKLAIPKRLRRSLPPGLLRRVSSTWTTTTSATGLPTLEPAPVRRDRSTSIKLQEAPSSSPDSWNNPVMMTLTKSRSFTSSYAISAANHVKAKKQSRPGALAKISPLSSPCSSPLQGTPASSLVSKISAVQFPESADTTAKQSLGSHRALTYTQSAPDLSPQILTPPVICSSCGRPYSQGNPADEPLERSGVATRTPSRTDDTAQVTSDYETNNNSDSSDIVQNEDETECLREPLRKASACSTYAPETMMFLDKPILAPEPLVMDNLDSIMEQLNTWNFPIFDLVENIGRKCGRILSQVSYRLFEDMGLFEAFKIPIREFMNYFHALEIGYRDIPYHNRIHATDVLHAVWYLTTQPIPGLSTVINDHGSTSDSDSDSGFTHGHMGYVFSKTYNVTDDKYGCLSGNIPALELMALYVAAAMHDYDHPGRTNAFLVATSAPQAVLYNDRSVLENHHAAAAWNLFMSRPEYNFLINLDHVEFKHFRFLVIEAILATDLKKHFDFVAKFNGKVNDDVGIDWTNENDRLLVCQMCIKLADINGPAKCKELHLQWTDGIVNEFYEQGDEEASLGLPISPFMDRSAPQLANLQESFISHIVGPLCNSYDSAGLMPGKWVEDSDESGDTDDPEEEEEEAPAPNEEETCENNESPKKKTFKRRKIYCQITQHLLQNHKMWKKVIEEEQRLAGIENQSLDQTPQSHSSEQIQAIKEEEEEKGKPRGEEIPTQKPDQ
In short: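 Radiometric SPA measuring [3H]-cAMP hydrolysis (0.4 μM cAMP, 2.4 μCi/ml) over 60 min at room temperature, in Tris pH 7.8 buffer with MgCl2 and EGTA, 1% DMSO. Enzyme: recombinant human brain PDE3A expressed in Sf9 cells, used as partially purified lysate. Counts compared with enzyme-free blanks and vehicle controls.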

[3] = target: T3, Rat recombinant PDE10A (rPDE10A2) (Rattus norvegicus, UniProt Q9QYJ6); assay: In vitro assay PDE10A, rat clone (SPA, 3H-cAMP hydrolysis); format: biochemical; details: for Emax / IC50: rat clone (r); for IC50: read-out: rPDE10A2 pIC50 (converted); for rPDE10A2 pIC50: rat clone, indicated as (r)
T3 construct: His tag (inferred from metal chelate purification); made in house; host or cells: Sf9 insect cells (baculovirus)
T3 sequence (Q9QYJ6 1-794): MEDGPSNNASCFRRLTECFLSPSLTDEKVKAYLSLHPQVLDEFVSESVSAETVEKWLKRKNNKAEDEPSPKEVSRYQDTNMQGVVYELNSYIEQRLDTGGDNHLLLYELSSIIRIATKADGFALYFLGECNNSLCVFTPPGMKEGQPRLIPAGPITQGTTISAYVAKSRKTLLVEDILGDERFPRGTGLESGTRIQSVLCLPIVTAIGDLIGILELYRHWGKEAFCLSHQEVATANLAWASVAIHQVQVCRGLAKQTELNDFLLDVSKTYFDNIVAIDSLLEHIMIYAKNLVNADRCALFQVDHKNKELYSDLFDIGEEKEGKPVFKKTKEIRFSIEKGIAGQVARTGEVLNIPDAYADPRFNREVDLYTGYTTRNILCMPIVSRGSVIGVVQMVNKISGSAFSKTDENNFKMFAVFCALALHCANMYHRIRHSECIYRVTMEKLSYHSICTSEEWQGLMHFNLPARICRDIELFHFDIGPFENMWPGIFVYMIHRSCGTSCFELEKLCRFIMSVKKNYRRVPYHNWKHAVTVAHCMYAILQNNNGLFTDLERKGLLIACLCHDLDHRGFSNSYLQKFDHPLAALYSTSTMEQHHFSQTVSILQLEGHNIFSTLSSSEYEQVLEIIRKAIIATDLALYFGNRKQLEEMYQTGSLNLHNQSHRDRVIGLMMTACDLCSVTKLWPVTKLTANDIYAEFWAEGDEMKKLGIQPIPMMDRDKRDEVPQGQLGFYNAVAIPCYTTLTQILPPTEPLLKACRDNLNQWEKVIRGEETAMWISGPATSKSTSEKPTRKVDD
Method: Rat recombinant PDE10A (rPDE10A2) was expressed in Sf9 cells using a recombinant rPDE10A baculovirus construct. Cells were harvested after 48 h of infection and the rPDE10A protein was purified by metal chelate chromatography on Ni-sepharose 6FF. Tested compounds were dissolved and diluted in 100% DMSO to a concentration 100 fold of the final concentration in the assay. Human recombinant PDE10A ([…]) was expressed in Sf9 cells using a recombinant hPDE10A baculovirus that was made and amplified in house. Cells were harvested after 72 h of infection and the hPDE10A protein was purified by metal chelate chromatography on Ni-sepharose. Compound dilutions (0.4 μl) were added in 384 well plates to 20 μl of incubation buffer (50 mM Tris pH 7.8, 8.3 mM MgCl2, 1.7 mM EGTA). 10 μl of rPDE10A or hPDE10A enzyme in incubation buffer was added and the reaction was started by addition of 10 μl substrate to a final concentration of 60 nM cAMP and 0.008 μCi ^3H-cAMP. The reaction was incubated for 60 minutes at room temperature. After incubation, the reaction was stopped with 20 μl of stop solution consisting of 17.8 mg/ml PDE SPA (scintillation proximity assay) beads. After sedimentation of the beads during 30 minutes the radioactivity was measured in a Perkin Elmer Topcount scintillation counter and results were expressed as cpm. For blanc values the enzyme was omitted from the reaction and replaced by incubation buffer. Control values were obtained by addition of a final concentration of 1% DMSO instead of compound. A best fit curve is fitted by a minimum sum of squares method to the plot of % of control value subtracted with blanc value versus compound concentration and the half maximal inhibitory concentration (IC50) value is derived from this curve.

[4] = target: T4, Human recombinant PDE10A (hPDE10A) (Homo sapiens, UniProt Q9Y233); assay: In vitro assay PDE10A, human clone (SPA, 3H-cAMP hydrolysis); format: biochemical
T4 construct: His tag (inferred from metal chelate purification); made in house; host or cells: Sf9 insect cells (baculovirus)
T4 sequence (Q9Y233 267-1055): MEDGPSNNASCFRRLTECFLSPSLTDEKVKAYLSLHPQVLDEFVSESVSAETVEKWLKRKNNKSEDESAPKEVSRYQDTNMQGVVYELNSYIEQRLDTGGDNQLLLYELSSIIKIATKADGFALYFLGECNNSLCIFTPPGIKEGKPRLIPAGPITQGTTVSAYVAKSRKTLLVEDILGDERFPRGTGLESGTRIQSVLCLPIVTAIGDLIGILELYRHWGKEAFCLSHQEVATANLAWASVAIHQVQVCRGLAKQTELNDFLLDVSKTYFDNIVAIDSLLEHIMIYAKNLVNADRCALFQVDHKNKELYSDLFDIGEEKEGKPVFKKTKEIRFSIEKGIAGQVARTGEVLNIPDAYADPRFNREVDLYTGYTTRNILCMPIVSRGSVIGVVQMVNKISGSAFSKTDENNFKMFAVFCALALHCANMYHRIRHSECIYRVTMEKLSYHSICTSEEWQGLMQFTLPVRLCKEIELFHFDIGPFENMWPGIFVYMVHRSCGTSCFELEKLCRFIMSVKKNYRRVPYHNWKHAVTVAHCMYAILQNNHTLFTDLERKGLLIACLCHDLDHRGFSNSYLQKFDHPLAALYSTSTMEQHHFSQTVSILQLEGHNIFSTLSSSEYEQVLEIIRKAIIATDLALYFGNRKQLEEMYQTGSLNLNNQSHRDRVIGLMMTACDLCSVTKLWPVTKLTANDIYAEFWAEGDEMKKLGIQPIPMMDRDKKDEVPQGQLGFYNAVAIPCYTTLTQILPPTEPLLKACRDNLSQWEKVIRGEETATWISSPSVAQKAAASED
In short: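 Hydrolysis of 3H-cAMP (60 nM cAMP, 0.008 μCi tracer) proceeded for 60 min at room temperature, with the product detected by SPA bead scintillation counting. The enzyme was hPDE10A from baculovirus-infected Sf9 cells in Tris pH 7.8 buffer with MgCl2 and EGTA, and compounds were at 1% DMSO final. Blanks lacked enzyme.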

PDE2A = target: T5, PDE2A (Rattus norvegicus, UniProt Q01062); assay: PDE2 occupancy by test compounds, ex-vivo autoradiography with [3H]B-17a; format: in vivo, Male Wistar rats; details: for receptor occupancy at 10 mg/kg: percentage receptor occupancy, ex-vivo autoradiography, striatum; for ED50: read-out: PDE Occupancy ED50
T5 construct: Twenty μm-thick striatal sections were cut; from tissue; host or cells: rat brain, striatal sections
T5 sequence (Q01062 1-928): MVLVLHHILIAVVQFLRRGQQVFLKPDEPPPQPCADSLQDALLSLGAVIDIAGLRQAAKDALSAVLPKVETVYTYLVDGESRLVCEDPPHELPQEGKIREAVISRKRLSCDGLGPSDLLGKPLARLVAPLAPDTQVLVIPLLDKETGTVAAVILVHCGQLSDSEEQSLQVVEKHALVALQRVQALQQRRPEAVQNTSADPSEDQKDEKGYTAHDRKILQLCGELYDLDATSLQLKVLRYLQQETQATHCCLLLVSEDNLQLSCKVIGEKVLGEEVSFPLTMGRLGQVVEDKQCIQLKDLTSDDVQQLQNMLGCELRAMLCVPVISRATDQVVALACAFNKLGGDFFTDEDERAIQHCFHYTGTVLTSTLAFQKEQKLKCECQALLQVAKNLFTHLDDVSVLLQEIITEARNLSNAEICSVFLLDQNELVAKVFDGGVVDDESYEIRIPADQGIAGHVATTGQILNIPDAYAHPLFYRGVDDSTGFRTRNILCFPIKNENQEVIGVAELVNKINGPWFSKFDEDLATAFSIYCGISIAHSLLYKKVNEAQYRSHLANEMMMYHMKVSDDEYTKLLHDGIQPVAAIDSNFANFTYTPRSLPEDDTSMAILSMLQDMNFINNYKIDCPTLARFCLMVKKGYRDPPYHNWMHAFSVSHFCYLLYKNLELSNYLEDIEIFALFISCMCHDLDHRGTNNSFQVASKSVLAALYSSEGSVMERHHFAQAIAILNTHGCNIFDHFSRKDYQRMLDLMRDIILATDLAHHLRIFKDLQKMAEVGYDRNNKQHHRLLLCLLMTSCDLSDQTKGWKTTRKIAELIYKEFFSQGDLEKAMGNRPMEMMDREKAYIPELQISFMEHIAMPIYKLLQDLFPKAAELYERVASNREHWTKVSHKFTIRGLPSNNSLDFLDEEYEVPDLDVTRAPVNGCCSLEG

[5] = route PO (oral), drug dose producing 50% receptor occupancy
[6] = human clone by default (no (r) mark), read-out: hPDE10A2 or rPDE10A2 Emax
[7] = human clone by default (no (r) mark), read-out: hPDE10A2 or rPDE10A2 pIC50 (converted)

| SMILES | melting point [°C] | IC50 ([1]; human recombinant PDE2A, 10 μM cGMP substrate) [nM] | Emax ([1]; human recombinant PDE2A) [%] | Emax [1] [%] | IC50 [1] [nM] | IC50 [2] [nM] | Emax [2] [%] | receptor occupancy at 10 mg/kg (PDE2A; po, route PO (oral)) [%] | ED50 (PDE2A; [5]) [mg/kg] | Emax [3] [%] | IC50 [3] [nM] | rPDE10A2 pIC50 [3] | Emax ([4]; human clone (h), default, read-out: hPDE10A2 Emax) [%] | IC50 ([4]; human clone (h), default, read-out: hPDE10A2 pIC50 (converted)) [nM] | Emax [4, 6] [%] | IC50 [4, 7] [nM] | receptor occupancy at 10 mg/kg (PDE2A; route PO (oral)) [%] | ED50 (PDE2A; po) [mg/kg] |
| --- | --- | --- | --- | --- | --- | --- | --- | --- | --- | --- | --- | --- | --- | --- | --- | --- | --- | --- |
| C[C@@H]1CCN(C(=O)c2ccc3occc3c2)C[C@H]1c1cc(C(F)F)nc2ncnn12 [Compound 97] |  |  |  |  |  |  |  |  |  | 99 | 34.7 | 7.46 (r) | 101 | 53.7 |  |  |  |  |
| Cn1ccc2cc(C(=O)N3[C@H]4CC[C@H](c5cc(C(F)F)nc6ncnn56)[C@@H]3CC4)ccc21 [Compound 295] | 178.8 |  |  | 101 | 0.49 | 977 | 94 |  |  |  |  |  |  |  | 98 | 245 | 71 | 5.63 |
| O=C(c1cnc2c(Cl)cccc2c1)N1[C@H]2CC[C@H](c3cc(C(F)F)nc4ncnn34)[C@@H]1CC2 [Compound 310] | 240.9 |  |  | 100 | 1.41 | 3890 | 78 |  |  |  |  |  |  |  | 95 | 398 | 52 | 9.6 |

The next lines start with results.

| melting point [°C] | IC50 ([1]; human recombinant PDE2A, 10 μM cGMP substrate) [nM] | Emax ([1]; human recombinant PDE2A) [%] | Emax [1] [%] | IC50 [1] [nM] | IC50 [2] [nM] | Emax [2] [%] | receptor occupancy at 10 mg/kg (PDE2A; po, route PO (oral)) [%] | ED50 (PDE2A; [5]) [mg/kg] | SMILES | Emax [3] [%] | IC50 [3] [nM] | rPDE10A2 pIC50 [3] | Emax ([4]; human clone (h), default, read-out: hPDE10A2 Emax) [%] | IC50 ([4]; human clone (h), default, read-out: hPDE10A2 pIC50 (converted)) [nM] | Emax [4, 6] [%] | IC50 [4, 7] [nM] | receptor occupancy at 10 mg/kg (PDE2A; route PO (oral)) [%] | ED50 (PDE2A; po) [mg/kg] |
| --- | --- | --- | --- | --- | --- | --- | --- | --- | --- | --- | --- | --- | --- | --- | --- | --- | --- | --- |
| 204.03 | 955 | 48 | 48 | 955 | > 10000 | 41 |  |  | CC(=O)N1CCc2cc(C(=O)N3CCC[C@@](C)(c4cc(C(F)F)nc5ncnn45)C3)ccc21 (single isomer, unassigned) [Compound 203] | 14 | > 10000 | <5 (r) |  |  |  |  |  |  |
| 114.59 |  |  | 100 | 1.66 | 2240 | 87 | 57 | 4.2 | Cc1cc(C(=O)N2CC[C@@H](C)[C@H](c3cc(C(F)F)nc4ncnn34)C2)cc(OC(F)F)n1 [Compound 281] |  |  |  |  |  | 99 | 110 |  |  |
| 193.33 |  |  | 100 | 2.88 | 1700 | 88 | 47 | 11.8 | COc1nc(C)cc(C(=O)N2CC[C@@H](C)[C@H](c3cc(C(F)F)nc4ncnn34)C2)c1F [Compound 282] |  |  |  |  |  | 98 | 275 |  |  |
